What is called IC50 is the concentration needed to halve the response being measured.

From patent EP0946545B1, “NOVEL CARBOXY SUBSTITUTED CYCLIC CARBOXAMIDE DERIVATIVES” (Aventis Pharmaceuticals Inc., priority 1996, dated 1998) come the findings set out here.

Where a name gives a salt, the structure may show the parent alone. Read-outs that look alike come from different tables or passages of the source.

The target of experiment [1] is T1, NK1 receptor (Cavia porcellus, UniProt P30547).
T1 construct: evaluated in guinea pig lungs (Keystone Biologicals, Cleveland, OH); tissue Keystone Biologicals, Cleveland, OH; host or cells: guinea pig lung membranes
T1 sequence (P30547 whole entry): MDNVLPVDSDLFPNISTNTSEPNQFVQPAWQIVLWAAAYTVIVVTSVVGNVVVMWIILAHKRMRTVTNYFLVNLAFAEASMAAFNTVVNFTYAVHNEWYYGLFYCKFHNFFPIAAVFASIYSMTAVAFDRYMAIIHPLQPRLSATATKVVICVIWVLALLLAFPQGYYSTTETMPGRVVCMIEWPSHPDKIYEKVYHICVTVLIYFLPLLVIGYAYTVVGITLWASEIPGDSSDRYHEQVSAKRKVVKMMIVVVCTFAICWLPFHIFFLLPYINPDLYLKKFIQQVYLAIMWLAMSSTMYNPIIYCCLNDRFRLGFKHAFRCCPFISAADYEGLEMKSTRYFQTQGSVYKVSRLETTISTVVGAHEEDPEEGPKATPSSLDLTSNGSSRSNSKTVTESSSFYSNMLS
Nature of the experiment: Antagonism of iodinated tachykinin binding to NK1 receptors (Example A). Details: species or system guinea pig. The method, then:
(§1) One skilled in the art can determine the NK1 receptor and NK2 receptor affinity in vitro as follows. The NK1 receptor affinity of tachykinin antagonists is evaluated in guinea pig lungs (Keystone Biologicals, Cleveland, OH) and affinity for the NK2 receptor is evaluated in HSKR-1 cells (which are mouse 3T3 fibroblasts expressing the human jejunal NK2 receptor). Tissues or cells are homogenized with a Polytron in 15 volumes of 50 mM Tris-HC1 buffer (pH 7.4, 4°C) and centrifuged. The pellet is resuspended in Tris-HCl buffer and is centrifuged; the pellet is washed twice by resuspension. The final pellet is resuspended at a concentration of 40 mg/ml for tissues and 20 mg/ml for cells in incubation buffer and remains at room temperature for at least 15 min prior to use. Receptor binding is initiated by addition of 250 ul membrane preparation in duplicate to 0.1 nM of the following radioligands: ^125I-Bolton Hunter Lys-3 labeled substance P and ^125iodohistidyl-1-neurokinin A; in a final volume of 500 ul of buffer containing 50 mM Tris-HCl (pH 7.4 at room temperature), 0.1% bovine serum albumin, 2 mM mangenese chloride, 40 ug/ml bacitracin, 4 µg/ml leupeptin and chymostatin, 10 µM thiorphan and various doses of the putative tachykinin antagonists. Incubations are performed at room temperature for 90 min (NK1 receptor assays) or 2 hr (NK2 receptor assay); binding is terminated by addition of 50 mM Tris-HCl buffer (pH 7.4, 4°C) and filtration under vacuum through GF/B filters presoaked with 0.1% polyethyleneimine (NK1 receptor assays) or 0.5% bovine serum albumin (NK2 receptor assay). Filter bound radioactivity is quantitated in a gamma counter. Nonspecific binding is defined as binding in the presence of 1 µM substance P or neurokinin A. Specific binding is calculated by subtracting nonspecific binding from total binding. Competition of iodinated SP or NKA binding by test compounds or standards is expressed as a percentage of this maximum binding. IC50 values (concentration required to inhibit 50% of receptor binding) are generated for each of the test compounds by nonlinear regression using an iterative curve fitting program (GraphPAD Inplot, San Diego, CA).
(§2) Tackykinin receptor binding (IC50 values) for representative compounds of the present invention is found in Table 1. The values in Table 1 were determined by the method of present Example A and represent the mean of several experiments, except where noted. […]

Experiment [2] concerns the target T2, human jejunal NK2 receptor (Homo sapiens, UniProt P21452).
T2 construct: expressed in transfected cells; host or cells: HSKR-1 cells (mouse 3T3 fibroblasts)
T2 sequence (P21452 1-398): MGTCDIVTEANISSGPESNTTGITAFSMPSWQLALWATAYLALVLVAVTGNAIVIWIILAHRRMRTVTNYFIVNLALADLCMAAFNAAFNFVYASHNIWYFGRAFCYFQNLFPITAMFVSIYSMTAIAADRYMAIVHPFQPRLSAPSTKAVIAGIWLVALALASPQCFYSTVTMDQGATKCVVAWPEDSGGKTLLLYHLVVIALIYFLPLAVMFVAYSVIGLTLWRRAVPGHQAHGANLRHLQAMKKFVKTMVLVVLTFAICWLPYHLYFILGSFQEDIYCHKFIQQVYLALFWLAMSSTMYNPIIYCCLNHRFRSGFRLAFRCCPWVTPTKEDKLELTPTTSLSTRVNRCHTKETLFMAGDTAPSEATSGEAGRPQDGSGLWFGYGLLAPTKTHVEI
The experiment in a line: Antagonism of iodinated tachykinin binding to NK2 receptors (Example A). The method, then:
as §1, §2

[3] abbreviates: read-out: Tachykinin Receptor Binding NK1 IC50, guinea pig lungs membranes, 0.1 nM 125I-Bolton Hunter Lys-3 labeled substance P, 90 min room temperature, mean of several experiments.
Setting [4] is: read-out: Tachykinin Receptor Binding NK2 IC50, HSKR-1 cells (mouse 3T3 fibroblasts expressing the human jejunal NK2 receptor), 0.1 nM 125iodohistidyl-1-neurokinin A, 2 hr room temperature, mean of several experiments.

As to `CCOC(=O)OCOC(=O)CN1CCN(C(=O)C2(c3ccccc3)CCN(CC[C@]3(c4ccc(Cl)c(Cl)c4)CCN(C(=O)c4cc(OC)c(OC)c(OC)c4)C3)CC2)CC1` [Example 31.2, (R)-1-(3,4,5-trimethoxybenzoyl)-3-(2-(4-phenyl-4-((4-carbo(ethoxycarbonyloxymethoxy)methylpiperazin-1-yl)carboxamido)piperidine)ethyl)-3-(3,4-dichlorophenyl)pyrrolidine fumaric acid salt], the IC50 came to 11.7 nM in experiment [1] (setting [3]) and 9.1 nM in experiment [2] (setting [4]).

In the case of `CCCC(=O)OCOC(=O)CN1CCN(C(=O)C2(c3ccccc3)CCN(CC[C@]3(c4ccc(Cl)c(Cl)c4)CCN(C(=O)c4cc(OC)c(OC)c(OC)c4)C3)CC2)CC1` [Example 35.2, (R)-1-(3,4,5-trimethoxybenzoyl)-3-(2-(4-phenyl-4-((4-carbo(propylcarbonyloxymethoxy)methylpiperazin-1 yl)carboxamido)piperidine)ethyl)-3-(3,4-dichlorophenyl)pyrrolidine fumaric acid salt], the values for the IC50 in experiment [1] (setting [3]) and in experiment [2] (setting [4]) were 14.7 nM and 11.7 nM, respectively.

In the case of `CCOC(=O)C1CN(C(=O)C2(c3ccccc3)CCN(CC[C@]3(c4ccc(Cl)c(Cl)c4)CCN(C(=O)c4cc(OC)c(OC)c(OC)c4)C3)CC2)CCO1` (stereo partly drawn) [Example 25.2, (R)-1-(3,4,5-trimethoxybenzoyl)-3-(2-(4-phenyl-4-((2-carboethoxymorpholin-4-yl)carboxamido)piperidin-1-yl)ethyl)-3-(3,4-dichlorophenyl)pyrrolidine fumaric acid salt], the IC50 in experiment [1] was determined as 14.4 nM; in experiment [2], 6.5 nM.

With `COc1cc(C(=O)N2CC[C@](CCN3CCC(C(=O)N4CCN(CC(=O)OCc5oc(=O)oc5C)CC4)(c4ccccc4)CC3)(c3ccc(Cl)c(Cl)c3)C2)cc(OC)c1OC` [Example 38.2, (R)-1-(3,4,5-Trimethoxybenzoyl)-3-(2-(4-phenyl-4-((4-carbo(5-methyl-2-oxo-1,3-dioxol-4-yimethoxy)methylpiperazin-1-yl)carboxamido)piperidin-1-yl)ethyl)-3-(3,4-dichlorophenyl)pyrrolidine fumaric acid salt], the IC50 in experiment [1] (setting [3]) worked out at 7.82 nM; in experiment [2] (setting [4]) it was 4.3 nM.

For the molecule `COc1cc(C(=O)N2CC[C@](CCN3CCC(C(=O)N4CCN(CC(=O)O)CC4)(c4ccccc4)CC3)(c3ccc(Cl)c(Cl)c3)C2)cc(OC)c1OC` [Example 9.2, (R)-1-(3,4,5-trimethoxybenzoyl)-3-(2-(4-phenyl-4-((4-carboxymethylpiperazin-1-yl)carboxamido)piperidine)ethyl)-3-(3,4-dichlororophenyl)pyrrolidine hydrochloric acid salt], the IC50 in experiment [1] worked out at 5.63 nM; in experiment [2], 3.13 nM.

Take `CCOC(=O)CCCN1CCN(C(=O)C2(c3ccccc3)CCN(CC[C@]3(c4ccc(Cl)c(Cl)c4)CCN(C(=O)c4cc(OC)c(OC)c(OC)c4)C3)CC2)CC1` [Example 29.2, (R)-1-(3,4,5-trimethoxybenzoyl)-3-(2-(4-phenyl-4-((4-carboethoxypropylpiperazin-1-yl)carboxamido)piperidine)ethyl)-3-(3,4-dichlorophenyl)pyrrolidine fumaric acid salt]: the IC50 came to 11.9 nM in experiment [1] and 3.21 nM in experiment [2].

`COc1cc(C(=O)N2CC[C@](CCN3CCC(C(=O)N4CCN(CC(=O)OCOC(=O)C(C)(C)C)CC4)(c4ccccc4)CC3)(c3ccc(Cl)c(Cl)c3)C2)cc(OC)c1OC` [Example 32.2, (R)-1-(3,4,5-trimethoxybenzoyl)-3-(2-(4-phenyl-4-((4-carbo(t-butylcarbonyloxymethoxy)methylpiperazin-1-yl)carboxamido)piperidine)ethyl)-3-(3,4-dichlorophenyl)pyrrolidine fumaric acid salt]: the results for the IC50 in experiment [1] (setting [3]) and in experiment [2] (setting [4]) were 21.2 nM and 13.9 nM, respectively.

Turning to `COC(=O)C1CCCN1C(=O)C1(c2ccccc2)CCN(CCC2(c3ccc(Cl)c(Cl)c3)CCN(C(=O)c3cc(OC)c(OC)c(OC)c3)C2)CC1` [Example 14.1, (R)-1-(3,4,5-Trimethoxybenzoyl)-3-(2-(4-phenyl-4-(((S)-2-carbomethoxypyrrolidin-1-yl)carboxamido)piperidin-1-yl)ethyl)-3-(3,4-dichlorophenyl)pyrrolidine], the figures for the half-inhibitory concentration (IC50) in experiment [1] and in experiment [2] were 4.32 nM and 4.51 nM, respectively.

Turning to `COc1cc(C(=O)N2CC[C@](CCN3CCC(C(=O)N4CCN(CC(=O)O)CC4)(c4cccnc4)CC3)(c3ccc(Cl)c(Cl)c3)C2)cc(OC)c1OC` [Example 6.1, (R)-1-(3,4,5-trimethoxybenzoyl)-3-(2-(4-(pyrid-3-yl)-4-((4-carboxymethylpiperazin-1-yl)carboxamido)piperidin-1-yl)ethyl)-3-(3,4-dichlorophenyl)pyrrolidine hydrochloric acid salt], the IC50 in experiment [1] was 16.1 nM; in experiment [2] it was 14.7 nM.

In the case of `CCOC(=O)C1CCN(C(=O)C2(c3ccccc3)CCN(CC[C@]3(c4ccc(Cl)c(Cl)c4)CCN(C(=O)c4cc(OC)c(OC)c(OC)c4)C3)CC2)CC1` [Example 21.1, (R)-1-(3,4,5-Trimethoxybenzoyl)-3-(2-(4-phenyl-4-((4-carboethoxypiperidin-1-yl)carboxamido)piperidin-1-yl)ethyl)-3-(3,4-dichlorophenyl)pyrrolidine], the half-inhibitory concentration (IC50) was 10.4 nM in experiment [1] and 2.28 nM in experiment [2].

On to `COc1cc(C(=O)N2CC[C@](CCN3CCC(C(=O)N4CCN(CC(=O)OCC(=O)N(CCO)CCO)CC4)(c4ccccc4)CC3)(c3ccc(Cl)c(Cl)c3)C2)cc(OC)c1OC` [Example 36.1, (R)-1-(3,4,5-Trimethoxybenzoyl)-3-(2-(4-phenyl-4-((4-carbo(N,N-di-(2-hydroxyethyl)carboxamidomethoxy)methylpiperazin-1-yl)carboxamido)piperidin-1-yl)ethyl)-3-(3,4-dichlorophenyl)pyrrolidine], for which the IC50 in experiment [1] (setting [3]) is 2.68 nM; in experiment [2] (setting [4]) it was 2.32 nM.
